Reference: patent publication US12421489B2, “Biological control of plant pathogenic microorganisms” (priority 2016, dated 2025)

Assays:
Assay type in all cases: in vivo
[1] = tested on: Pseudomonas syringae pv. actinidiae (Psa); assay: Field trials 2015-16: foliar sprays on ‘Hayward’ vines, Blocks B and C, Maketu; details: mean of Blocks B and C
From the text: Grower standard treatment: Kocide Opti+1×Kasumin
Two field trial sites were established during spring 2015 with the intention of running across two consecutive seasons. The two ‘Hayward’ blocks (coded Block B and C) were located in separate orchards, near Maketu, Bay of Plenty. Block C was the same orchard as the 2014-15 trial, but a different area in the blocks was used. Vines in all blocks were pergola trained with a single vine per bay. The vines generally looked healthy at the commencement of the trial, but had suffered from significant Psa symptoms 2-3 years previously, according to the grower.
The spray treatments were applied to individual vines (eight replicates per treatment) laid out in a randomised block design. The treatments were: • 1. Nil—no Psa control products applied during the growing season • 2. Grower standard—copper-based foliar spray programme, including up to one antibiotic spray • 3. YBCA5—yeast-based foliar spray programme (2×10^7 CFU/mL)
Spray applications in the Grower standard and YBCA5 treatments were applied according to the schedule in Table 5. Common agricultural adjuvants were added to the Grower standard (0.04% Du-Wett®) and YBCA5 (0.03% Nu-Film-17@) applications.
The YBCA5 yeast was produced by liquid fermentation, sourced from three separate production facilities: PFR (Ruakura), AgResearch (Lincoln) and Callaghan Innovation (Lower Hutt). A concentrated yeast pellet after centrifugation was supplied to the laboratory at Ruakura and this was mixed with an inert carrier and extruded to form granules which were air dried overnight in a laminar flow hood. The number of colony forming units/g was calculated by dissolving 0.2 g samples into 20 mL phosphate buffered saline amended with 0.05% Tween 80 (PBSTw). This was serially diluted and 10-μL droplets of each dilution were transferred to Petri dishes with malt yeast extract agar amended with chloramphenicol. Petri dishes were incubated for 24 h at 25° C. and then 4-6° C. for a further 24 h, prior to counting the number of colonies. […]
Psa disease assessments were carried out in the ‘Hayward’ blocks just prior to flowering on 11 Nov. […] Assessments were commenced after taking one step (i.e. 1 m) from the edge of the plot and a set of 25 leaves were scored. […] This was then repeated down the other side of the vine so that four sets of 25 leaves (total=100) were scored within each plot. Similarly, 100 buds/plot were scored for the severity of bud-browning, as described above.
Data were expressed as Psa incidence (based on the proportion of leaves with Psa spotting/proportion of buds with brown sepals) and average Psa severity (mean % leaf area necrotic/mean number of brown sepals on buds). Data were log-transformed and analysed by ANOVA using Genstat (ver. 16) to determine treatment differences. […]

Monilinia fructicola = assay: Cherry inoculation assays 1 and 3: Monilinia fruit rot of ‘Sweet Valentine’ cherries, dip treatment; details: Assay 3, cherries, cumulative after 16 days; Nil 88%; YBCA5 not significant (P>0.05), captan P<0.001
Method: (§1) Fruit-based screening assays were conducted in laboratories at the Plant and Food Research Ruakura Research Centre, Hamilton, New Zealand (PFR). PFR assays focused on dip treatment application of YBCA5 and fungicide controls.
(§2) Fruit for Monilinia fructicola and Botrytis spp. inoculation assays were carried out on sweet cherries (Prunus avium ‘Sweet Valentine’) that were picked at the harvest mature stage and sourced from the PFR Clyde Research Orchard in Central Otago on 8 Jan. 2016 for fruit based assays 1 and 2. A second harvest was carried out on 13 Jan. 2016 for fruit based assays 3 and 4.
(§3) Each cherry was then subjected to a double wash process. Wash one consisted of 10 minutes in tap water on a rotary shaker (110 rpm) followed by a five minute wash in SDW (Wash 2). […]
A Monilinia fructicola culture (isolate code MFGQ3), which had been originally isolated from an infected peach tree located in the Hamilton region during 1998, was used for the spray inoculation assays included in this section (Ruakura based assay). […] This stock suspension was then filtered using a 70 μm cell strainer (to remove mycelial fragments), the concentration determined using a haemocytometer and then adjusted, by dilution with SDW+Tw 80 (0.05%) to a final concentration of 1×10^4 conidia/mL. […]

Botrytis spp. [2] = assay: Grape inoculation assay 5: Botrytis spp. rot of wounded table grape berries; details: Assay 5, wounded table grapes, 9 days, mean of two Botrytis spp. isolates; nil 30%; significantly reduced (P<0.001)
Method: Fruit assays were carried out on detached white table grape berries (‘Thompson seedless’—Assay 5), imported from California that were sourced from a local supermarket in Hamilton. Each berry was detached from the bunch with 3-4 mm of pedicel remaining and then subjected to a double wash process. Wash one consisted of 10 minutes in tap water on a rotary shaker (110 rpm) followed by a five minute wash in SDW (Wash 2). All berries were placed onto sterile black plastic grids in a sterile plastic meat tray with two sterile paper towels and were allowed to dry in a laminar flow hood. Each berry was lightly wounded with the aid of fine sandpaper, Grade P220, then dipped in the treatments for 60 seconds and again allowed to dry.
YBCA5 granules were prepared by fermenting the yeast for 3 days in a 10 L bioreactor (Labfors) using sterile liquid media (4% molasses and 1.2 g/L urea). […]
Botrytis spp. inoculum was prepared by growing each isolate of Botrytis spp. for 5-7 days on PDA (DIFCO, Fort Richard) medium and harvesting the conidia by washing the plate with SDW plus Tween 80 (0.01%) to make a stock suspension of inoculum. This stock suspension was then filtered using a cell strainer (70 μm mesh, Falcon) to remove mycelial fragments, the concentration determined using a haemocytometer and adjusted to the required concentration (2×10^4 conidia/mL) equivalent to 200 conidia in each 10 μL droplet. […]

Botrytis spp. [3] = assay: Cherry inoculation assays 2 and 4: Botrytis spp. fruit rot of ‘Sweet Valentine’ cherries, dip treatment; details: Assay 4, cherries, cumulative after 16 days; nil 67%; not significantly reduced (P>0.05)
Method: as §1, §2, §3
A Botrytis spp. culture (isolate code 09-2), which had been originally isolated from an infected kiwifruit located in the Bay of Plenty region during the 2000s, was used for the spray inoculation assays included in this section carried out on cherries. […] This stock suspension was then filtered using a 70 μm cell strainer (70 μm mesh) to remove mycelial fragments, the concentration determined using a haemocytometer and then adjusted, by dilution with SDW+Tw 80 (0.01% v/v) to a final concentration of 1×10^5 conidia/mL. […]

Row | SMILES | Severity of spotting (% leaf area) ([1]; assessed Nov. 11, 2015, Nil control 0.24, LSD 0.099) | Severity of bud browning (No. sepals) ([1]; assessed Nov. 11, 2015, Nil control 1.29, LSD 0.226) | % leaves with spotting (incidence) ([1]; assessed Nov. 11, 2015, Nil control 50, LSD 8.0) | % buds with necrosis (incidence) ([1]; assessed Nov. 11, 2015, Nil control 61, LSD 9.9) | incidence of Monilinia fruit rot (Monilinia fructicola) | incidence of Botrytis spp. fruit rot (Botrytis spp. [2]) | incidence of Botrytis spp. fruit rot (Botrytis spp. [3])
1 | [Cu+2].[OH-].[OH-] [Kocide Opti, Copper Hydroxide] | 0.07 b % leaf area | 0.80 b No. sepals | 27 b % | 45 b % | – | – | –
2 | O=C1C2CC=CCC2C(=O)N1SC(Cl)(Cl)Cl (stereo not shown) [captan] | – | – | – | – | 12% | 10% | 43%
